Reference: PubChem BioAssay (NCI)
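All cell lines were grown in 96-well plates and treated with compound for 48 hours. Definition used: TGI = concentration required for complete inhibition of growth.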

Experiments:
Test in all cases: growth of human tumour cells (NCI), 48 h
[1] = system: IGROV1 ovarian
[2] = system: SK-MEL-2 melanoma
[3] = system: HCT-116 colon
[4] = system: SR leukemia
[5] = system: HS 578T breast
[6] = system: OVCAR-3 ovarian
[7] = system: SN12C renal
[8] = system: SNB-75 CNS
[9] = system: SF-295 CNS
[10] = system: UACC-62 melanoma
[11] = system: NCI-H522 lung
[12] = system: SK-MEL-5 melanoma
[13] = system: COLO 205 colon
[14] = system: MALME-3M melanoma
[15] = system: TK-10 renal
[16] = system: CCRF-CEM leukemia
[17] = system: HL-60(TB) leukemia
[18] = system: HOP-92 NSCLC
[19] = system: HOP-62 NSCLC
[20] = system: NCI-H460 lung
[21] = system: 786-0 renal
[22] = system: MCF7 breast
[23] = system: NCI-H23 lung
[24] = system: MOLT-4 leukemia
[25] = system: CAKI-1 renal
[26] = system: MDA-MB-435
[27] = system: SF-268 CNS
[28] = system: LOX IMVI melanoma
[29] = system: SW-620 colon
[30] = system: KM12 colon
[31] = system: RXF 393 renal
[32] = system: SK-OV-3 ovarian
[33] = system: A549 NSCLC
[34] = system: OVCAR-5 ovarian
[35] = system: BT-549 breast
[36] = system: SNB-19 CNS
[37] = system: A498 renal
[38] = system: OVCAR-4 ovarian
[39] = system: RPMI-8226 leukemia
[40] = system: NCI-H226 lung
[41] = system: U251 CNS
[42] = system: HCT-15 colon
[43] = system: UO-31 renal
[44] = system: UACC-257 melanoma
[45] = system: SF-539 CNS
[46] = system: HT29 colon
[47] = system: EKVX NSCLC
[48] = system: ACHN renal
[49] = system: DU-145 prostate
[50] = system: M14 melanoma
[51] = system: NCI/ADR-RES ovarian
[52] = system: OVCAR-8 ovarian
[53] = system: PC-3 prostate
[54] = system: K-562 leukemia
[55] = system: T-47D breast
[56] = system: SK-MEL-28 melanoma
[57] = system: HCC-2998 colon

Structure (SMILES): COc1cc(/C=C2\N=C(c3ccccc3)N(c3ccc(S(=O)(=O)Nc4nccs4)cc3)C2=O)ccc1O
- TGI [1]: > 100 µM
- TGI [2]: > 100 µM
- TGI [3]: > 100 µM
- TGI [4]: > 100 µM
- TGI [5]: > 100 µM
- TGI [6]: > 100 µM
- TGI [7]: > 100 µM
- TGI [8]: > 100 µM
- TGI [9]: > 100 µM
- TGI [10]: > 100 µM
- TGI [11]: > 100 µM
- TGI [12]: > 100 µM
- TGI [13]: > 100 µM
- TGI [14]: > 100 µM
- TGI [15]: > 100 µM
- TGI [16]: > 100 µM
- TGI [17]: > 100 µM
- TGI [18]: > 100 µM
- TGI [19]: > 100 µM
- TGI [20]: > 100 µM
- TGI [21]: > 100 µM
- TGI [22]: > 100 µM
- TGI [23]: > 100 µM
- TGI [24]: > 100 µM
- TGI [25]: > 100 µM
- TGI [26]: > 100 µM
- TGI [27]: > 100 µM
- TGI [28]: > 100 µM
- TGI [29]: > 100 µM
- TGI [30]: > 100 µM
- TGI [31]: > 100 µM
- TGI [32]: > 100 µM
- TGI [33]: > 100 µM
- TGI [34]: > 100 µM
- TGI [35]: > 100 µM
- TGI [36]: > 100 µM
- TGI [37]: > 100 µM
- TGI [38]: > 100 µM
- TGI [39]: > 100 µM
- TGI [40]: > 100 µM
- TGI [41]: > 100 µM
- TGI [42]: > 100 µM
- TGI [43]: > 100 µM
- TGI [44]: > 100 µM
- TGI [45]: > 100 µM
- TGI [46]: > 100 µM
- TGI [47]: > 100 µM
- TGI [48]: > 100 µM
- TGI [49]: > 100 µM
- TGI [50]: > 100 µM
- TGI [51]: > 100 µM
- TGI [52]: > 100 µM
- TGI [53]: > 100 µM
- TGI [54]: > 100 µM
- TGI [55]: > 100 µM

Structure (SMILES): COc1cc2c(cc1C)NC(=O)/C2=C\c1cccnc1
- TGI [56]: > 100 µM
- TGI [2]: 76.1 µM
- TGI [3]: > 100 µM
- TGI [57]: 21.6 µM
- TGI [5]: 96.6 µM
- TGI [6]: 33.6 µM
- TGI [7]: 37.8 µM
- TGI [8]: 50.2 µM
- TGI [9]: 35 µM
- TGI [11]: 70.2 µM
- TGI [12]: 33.5 µM
- TGI [13]: 39.8 µM
- TGI [14]: 30.2 µM
- TGI [15]: 31.7 µM
- TGI [16]: > 100 µM
- TGI [17]: > 100 µM
- TGI [18]: 59.5 µM
- TGI [19]: 51.9 µM
- TGI [20]: 85.4 µM
- TGI [21]: > 100 µM
- TGI [22]: 47.8 µM
- TGI [23]: 23.3 µM
- TGI [24]: 60.1 µM
- TGI [25]: 36.2 µM
- TGI [26]: 50.1 µM
- TGI [27]: 50 µM
- TGI [28]: > 100 µM
- TGI [29]: 84.8 µM
- TGI [30]: 35.6 µM
- TGI [31]: 43.1 µM
- TGI [32]: 43.9 µM
- TGI [33]: 71.7 µM
- TGI [34]: 31.8 µM
- TGI [35]: 96.9 µM
- TGI [36]: 40.4 µM
- TGI [37]: 26.1 µM
- TGI [38]: 40.4 µM
- TGI [39]: 55.5 µM
- TGI [41]: > 100 µM
- TGI [42]: > 100 µM
- TGI [43]: 39.5 µM
- TGI [44]: 28.4 µM
- TGI [45]: 51.7 µM
- TGI [46]: > 100 µM
- TGI [47]: 52.9 µM
- TGI [48]: > 100 µM
- TGI [49]: 54.3 µM
- TGI [50]: 77 µM
- TGI [51]: 36.8 µM
- TGI [52]: 72.6 µM
- TGI [53]: > 100 µM
- TGI [54]: > 100 µM
- TGI [55]: 11.7 µM
